Data taken from US20250098679A1, “HERBICIDAL PYRIDONE DERIVATIVES” (SYNGENTA CROP PROTECTION AG, priority 2021, published 2025).

What was measured:
Assay type in all cases: in vivo
Conditions in all cases: evaluated after 13 days
[1] = system: Echinochloa crus-galli (ECHCG); assay: Post-emergence Test, Echinochloa crus-galli (ECHCG); parameters: key to percentage damage caused to the plant, ECHCG (five-point scale): 5=81-100%, 4=61-80%, 3=41-60%, 2=21-40%, 1=0-20% damage
Method in brief: (§1)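 Scores are percentage plant damage on a 1–5 scale (1=0-20%, 2=21-40%, 3=41-60%, 4=61-80%, 5=81-100%), read 13 days after treatment. Pots received a spray at 1000 g/ha unless otherwise stated, formulated in acetone/water (50:50) containing 0.5% Tween 20.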

[2] = system: Ipomoea hederacea (IPOHE); assay: Pre-emergence Test, Ipomoea hederacea (IPOHE)
[3] = system: Zea mays (ZEAMX); assay: Pre-emergence Test, Zea mays (ZEAMX)
[4] = system: Amaranthus palmeri (AMAPA); assay: Pre-emergence Test, Amaranthus palmeri (AMAPA)
[5] = system: Echinochloa crus-galli (ECHCG); assay: Pre-emergence Test, Echinochloa crus-galli (ECHCG)
[6] = system: Setaria faberi (SETFA); assay: Post-emergence Test, Setaria faberi (SETFA); parameters: key to percentage damage caused to the plant, SETFA (five-point scale): 5=81-100%, 4=61-80%, 3=41-60%, 2=21-40%, 1=0-20% damage
Method in brief: as §1

[7] = system: Amaranthus palmeri (AMAPA); assay: Post-emergence Test, Amaranthus palmeri (AMAPA); parameters: key: 5=81-100%, 4=61-80%, 3=41-60%, 2=21-40%, 1=0-20% damage
Method in brief: as §1

[8] = system: Amaranthus retoflexus (AMARE); assay: Pre-emergence Test, Amaranthus retoflexus (AMARE)
[9] = system: Zea mays (ZEAMX); assay: Post-emergence Test, Zea mays (ZEAMX); parameters: key to percentage damage caused to the plant, ZEAMX (five-point scale): 5=81-100%, 4=61-80%, 3=41-60%, 2=21-40%, 1=0-20% damage
Method in brief: as §1

[10] = system: Setaria faberi (SETFA); assay: Pre-emergence Test, Setaria faberi (SETFA)
[11] = system: Ipomoea hederacea (IPOHE); assay: Post-emergence Test, Ipomoea hederacea (IPOHE); parameters: key to percentage damage caused to the plant, IPOHE (five-point scale): 5=81-100%, 4=61-80%, 3=41-60%, 2=21-40%, 1=0-20% damage
Method in brief: as §1

[12] = system: Amaranthus retoflexus (AMARE); assay: Post-emergence Test, Amaranthus retoflexus (AMARE); parameters: key to percentage damage caused to the plant, AMARE (five-point scale): 5=81-100%, 4=61-80%, 3=41-60%, 2=21-40%, 1=0-20% damage
Method in brief: as §1

SMILES | percentage damage caused to the plant, ECHCG (five-point scale) ([1]; 1000 g/ha) | Pre-emergence Test IPOHE, percentage damage caused to the plant (five-point scale) ([2]; 1000 g/ha) | Pre-emergence Test ZEAMX, percentage damage caused to the plant (five-point scale) ([3]; 1000 g/ha) | Pre-emergence Test AMAPA, percentage damage caused to the plant (five-point scale) ([4]; 1000 g/ha) | Pre-emergence Test ECHCG, percentage damage caused to the plant (five-point scale) ([5]; 1000 g/ha) | percentage damage caused to the plant, SETFA (five-point scale) ([6]; 1000 g/ha) | percentage damage caused to the plant, AMAPA (five-point scale) ([7]; 1000 g/ha) | Pre-emergence Test AMARE, percentage damage caused to the plant (five-point scale) ([8]; 1000 g/ha) | percentage damage caused to the plant, ZEAMX (five-point scale) ([9]; 1000 g/ha) | Pre-emergence Test SETFA, percentage damage caused to the plant (five-point scale) ([10]; 1000 g/ha) | percentage damage caused to the plant, IPOHE (five-point scale) ([11]; 1000 g/ha) | percentage damage caused to the plant, AMARE (five-point scale) ([12]; 1000 g/ha) | percentage damage caused to the plant, ECHCG (five-point scale) ([1]; 250 g/Ha) | percentage damage caused to the plant, SETFA (five-point scale) ([6]; 250 g/Ha) | percentage damage caused to the plant, AMAPA (five-point scale) ([7]; 250 g/Ha) | percentage damage caused to the plant, ZEAMX (five-point scale) ([9]; 250 g/Ha) | percentage damage caused to the plant, IPOHE (five-point scale) ([11]; 250 g/Ha) | percentage damage caused to the plant, AMARE (five-point scale) ([12]; 250 g/Ha) | other results
CCn1c(Cn2ccc(Cl)n2)cc(=O)c(C(=O)O)c1-c1ccc(S(C)(=O)=O)c(Cl)c1 [Compound 130, 2-(3-chloro-4-methylsulfonyl-phenyl)-6-[(3-chloropyrazol-1-yl)methyl]-1-ethyl-4-oxo-pyridine-3-carboxylic acid] | 0 | 0 | 0 | 1 (1=0-20%) | 0 | 1 (1=0-20%) | 2 (2=21-40%) | 1 (1=0-20%) | 0 | 0 | 1 (1=0-20%) | 1 (1=0-20%) | – | – | – | – | – | – | –
CCn1c(Cn2cc(C(F)(F)F)cn2)cc(=O)c(C(=O)O)c1-c1ccc(Cl)c(Cl)c1 [Compound 6, 2-(3,4-dichlorophenyl)-1-ethyl-4-oxo-6-[[4-(trifluoromethyl)pyrazol-1-yl]methyl]pyridine-3-carboxylic acid] | 4 (4=61-80%) | 2 (2=21-40%) | 0 | – | 3 (3=41-60%) | 4 (4=61-80%) | 2 (2=21-40%) | 0 | 4 (4=61-80%) | 4 (4=61-80%) | 1 (1=0-20%) | 0 | 3 (3=41-60%) | 0 | 0 | 0 | 1 (1=0-20%) | 1 (1=0-20%) | Pre-emergence Test IPOHE, percentage damage caused to the plant (five-point scale) ([2]; 250 g/Ha (*)): 1 (1=0-20%); Pre-emergence Test ZEAMX, percentage damage caused to the plant (five-point scale) ([3]; 250 g/Ha (*)): 0; Pre-emergence Test AMAPA, percentage damage caused to the plant (five-point scale) ([4]; 250 g/Ha (*)): 1 (1=0-20%); Pre-emergence Test ECHCG, percentage damage caused to the plant (five-point scale) ([5]; 250 g/Ha (*)): 3 (3=41-60%); Pre-emergence Test AMARE, percentage damage caused to the plant (five-point scale) ([8]; 250 g/Ha (*)): 0; Pre-emergence Test SETFA, percentage damage caused to the plant (five-point scale) ([10]; 250 g/Ha (*)): 2 (2=21-40%)
CCn1c(Cn2nccn2)cc(=O)c(C(=O)O)c1-c1ccc(Cl)c(Cl)c1 [Compound 48, 2-(3,4-dichlorophenyl)-1-ethyl-4-oxo-6-(triazol-2-ylmethyl)pyridine-3-carboxylic acid] | 5 (5=81-100%) | 0 | 0 | 1 (1=0-20%) | 5 (5=81-100%) | 4 (4=61-80%) | 3 (3=41-60%) | 0 | 3 (3=41-60%) | 5 (5=81-100%) | 2 (2=21-40%) | 0 | 3 (3=41-60%) | 4 (4=61-80%) | 1 (1=0-20%) | 0 | 4 (4=61-80%) | 1 (1=0-20%) | –
CCn1c(Cn2nc(C(F)(F)F)nc2C)cc(=O)c(C(=O)O)c1-c1ccc(Cl)c(Cl)c1 [Compound 108, 2-(3,4-dichlorophenyl)-1-ethyl-6-[[5-methyl-3-(trifluoromethyl)-1,2,4-triazol-1-yl]methyl]-4-oxo-pyridine-3-carboxylic acid] | 2 (2=21-40%) | 0 | 0 | 0 | 0 | 2 (2=21-40%) | 0 | 0 | 1 (1=0-20%) | 0 | 0 | 0 | 1 (1=0-20%) | 1 (1=0-20%) | 0 | 0 | 0 | 0 | –
CCn1c(Cn2cc(C)cn2)cc(=O)c(C(=O)O)c1-c1ccc(Cl)c(Cl)c1 [Compound 91, 2-(3,4-dichlorophenyl)-1-ethyl-6-[(4-methylpyrazol-1-yl)methyl]-4-oxo-pyridine-3-carboxylic acid] | 1 (1=0-20%) | 0 | 0 | 1 (1=0-20%) | 0 | 1 (1=0-20%) | 4 (4=61-80%) | 1 (1=0-20%) | 1 (1=0-20%) | 0 | 3 (3=41-60%) | 2 (2=21-40%) | 3 (3=41-60%) | 0 | 1 (1=0-20%) | 1 (1=0-20%) | 0 | 1 (1=0-20%) | –
